For 33 compounds, IC50 results are on record in patent publication US9206186B2, “2-phenoxy- and 2-phenylsulfonamide derivatives with CCR3 antagonistic activity for the treatment of inflammatory or immunological disorders” (AXIKIN PHARMACEUTICALS, INC., priority 2003, dated 2015).

In general, IC50 refers to the midpoint of a concentration-inhibition curve.

Structures can show the parent of a compound that is named as a salt. A value given as a limit tells only on which side of the number the result lay.

The target in the assay is T1, Human CCR3 (Homo sapiens, UniProt P51677).
T1 construct: The cloned CCR3 cDNA was constructed with pcDNA3 vector and transfected into a K562 cell line; expressed in transfected cells
T1 sequence (P51677 1-355): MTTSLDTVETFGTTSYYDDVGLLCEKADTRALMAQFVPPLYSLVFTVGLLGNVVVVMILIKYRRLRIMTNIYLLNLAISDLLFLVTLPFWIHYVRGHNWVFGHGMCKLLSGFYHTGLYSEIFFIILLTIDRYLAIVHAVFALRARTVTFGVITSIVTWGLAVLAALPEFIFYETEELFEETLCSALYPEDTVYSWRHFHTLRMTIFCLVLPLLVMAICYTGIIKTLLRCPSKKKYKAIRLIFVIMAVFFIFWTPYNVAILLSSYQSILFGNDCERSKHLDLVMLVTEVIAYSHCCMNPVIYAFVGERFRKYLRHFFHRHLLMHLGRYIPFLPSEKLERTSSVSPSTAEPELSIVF
In words: Calcium mobilization assay (Ca2+), eotaxin-stimulated human CCR3-transformed K562 cells. The settings on record: compounds of about 40 to 90% purity, read-out: Activity grade IC50. The class given is cell-based. How it is done: • Human CCR3-transformed K562 cells were used. The cloned CCR3 cDNA was constructed with pcDNA3 vector and transfected into a K562 cell line. The human CCR3-transformed K562 cells were maintained in RPMI-1640 (Cat.#22400-089, Life Technologies) supplemented with 10% FCS (Cat.#A-1115-L, Hyclone), 55 μM 2-mercaptoethanol (Cat.#21985-023, Life Technologies), 1 mM sodium pyruvate (Cat.#11360-070, Life Technologies), 100 units/ml of penicillin G and 100 μg/ml of streptomycin (Cat.#15140-122, Life Technologies), and 0.4 mg/ml of Geneticin (Cat.#10131-035, Life Technologies) (hereinafter called “culture medium”). Before the receptor binding assay, cells were pretreated with 5 mM sodium butyrate (Cat.#193-01522, Wako)-containing the culture medium (2×10^5 cells/ml) for 20-24 hours to increase the expression of CCR3. (2) Receptor Binding Assay • Butyrate-pretreated cells, suspended in binding buffer (25 mM HEPES pH 7.6, 1 mM CaCl2, 5 mM MgCl2, 0.5% BSA, 0.1% NaN3) at a cell density of 2×10^6 cells/ml, were added into 60 μl/well in the 96-well round bottom polypropylene plate (Cat.#3365, Costar). Compounds, diluted with the binding buffer (4-times higher concentration of the final concentration), were added into 30 μl/well in the polypropylene plate. [^125I]-labeled human eotaxin (Cat.#IM290, Amersham Pharmacia Biotech), diluted with the binding buffer at the concentration of 0.4 nM (final concentration; 0.1 nM), was added into 30 μl/well in the polypropylene plate. Total 120 μl/well of binding reaction mixture (60 μl/well of cell suspension, 30 μl/well of compound solution, and 30 μl/well of [^125I]-labeled eotaxin) were incubated in the polypropylene plate for 1 hour at room temperature after the incubation, 100 μl/well of the reaction mixture was transferred to a filtration plate (Cat.#MAFB-N0B, Millipore), and washed with the washing buffer (25 mM HEPES pH 7.6, 1 mM CaCl2, 5 mM MgCl2, 0.5% BSA, 0.1% NaN3, 0.5 M NaCl) twice. The 96-well filtration plate was pretreated with 100 μl/well of 0.5% polyethylenimine (Cat.#P-3143, Sigma) for 2-4 hours at room temperature and washed with the washing buffer twice before use. The non-specific binding was determined by parallel incubation in the presence of 500 nM of non-labeled eotaxin (Cat.#23209, Genzyme Techne). The radioactivities remained on the filter were measured by liquid scintillation counter (TopCount™, Packard) after an addition of 45 μl/well of scintillant (Microscint20, Cat.#6013621, Packard). The inhibition percent at each concentration of compound was calculated, and IC50 values were determined from the inhibition curve. [Determination of IC50 Values of Compounds in Calcium Mobilization Assay] (1) Cell • Human CCR3-transformed K562 cells were used. The human CCR3-transformed K562 cells were maintained in RPMI-1640 supplemented with 10% FCS, 55 μM 2-mercaptoethanol (Cat.#21985-023, Life Technologies), 1 mM sodium pyruvate, 100 units/ml of penicillin G and 100 μg/ml of streptomycin, and 0.4 mg/ml of Geneticin. Before the calcium mobilization assay, cells were pretreated with 5 mM sodium butyrate-containing the culture medium (2×10^5 cells/ml) for 20-24 hours to increase the expression of CCR3. (2) Calcium Mobilization Assay • Butyrate-pretreated cells were loaded with Fluo-3AM (Cat.#F-1242, Molecular Probes) in loading buffer (Hanks' solution Cat.#05906 Nissui, 20 mM HEPES pH 7.6, 0.1% BSA, 1 mM probenecid Cat.#P-8761 Sigma, 1 μM Fluo-3AM, 0.01% pluronic F-127 Cat.#P-6866 Molecular Probes) at a cell density of 1×10^7 cells/ml. Then, cells were washed with calcium assay buffer (Hanks' solution Cat.#05906 Nissui, 20 mM HEPES pH 7.6, 0.1% BSA, 1 mM Probenecid Cat.#P-8761 Sigma). The cell suspension (3.3×10^6 cells/ml) was added into 60 μl/well in the 96-well clear bottom black plate (Cat.#3904, Costar). Compounds, diluted (5-times concentration of the final concentration) with the calcium assay buffer, were added into 20 μl/well in the plate 10 minutes before assay. […]
(Calcium flux is commonly read through the fluorescence of an indicator in the cells.)
Regarding `N#Cc1ccc(Oc2cc(Cl)cc(Cl)c2)c(S(=O)(=O)N[C@H]2CN3CCC2CC3)c1` [Example 1-1, N—(R)-(+)-(1-aza-bicyclo[2.2.2]oct-3-yl)-5-cyano-2-(3,5-dichloro-phenoxy)-benzenesulfonamide], the 50% inhibitory concentration (IC50) is less than 100 nM. The result for `CN(C)CCN(CCN1C(=O)CCC1=O)S(=O)(=O)c1cc(C#N)ccc1Oc1cc(Cl)cc(Cl)c1` [Example 1-2, 5-cyano-2-(3,5-dichloro-phenoxy)-N-(2-dimethylamino-ethyl)-N-[2-(2,5-dioxo-pyrrolidin-1-yl)-ethyl]-benzenesulfonamide] reads less than 100 nM. Next, `N#Cc1ccc(Oc2cc(Cl)cc(Cl)c2)c(S(=O)(=O)N2CCN[C@@H](Cc3c[nH]c4ccccc34)C2)c1` [Example 1-3, 4-(3,5-dichloro-phenoxy)-3-[(3S)-(1H-indol-3-ylmethyl)-piperazine-1-sulfonyl]-benzonitrile]: less than 100 nM; `N#Cc1ccc(Oc2cc(Cl)cc(Cl)c2)c(S(=O)(=O)N2CCNCC2Cn2cncn2)c1` (stereo not drawn) [Example 1-4, 4-(3,5-dichlorophenoxy)-3-{[2-(1H-1,2,4-triazol-1-ylmethyl)-1-piperazinyl]sulfonyl}benzonitrile hydrochloride]: less than 100 nM. The result for `N#Cc1ccc(Oc2cc(Cl)cc(Cl)c2)c(S(=O)(=O)N2CCCCC2)c1` [Example 1-5] reads more than 500 nM; that for `N#Cc1ccc(Oc2cc(Cl)cc(Cl)c2)c(S(=O)(=O)N2CC3CCN(Cc4ccccc4)C3C2)c1` (stereo not drawn) [Example 1-6], less than 100 nM; that for `CS(=O)(=O)NCC1CN(S(=O)(=O)c2cc(C#N)ccc2Oc2cc(Cl)cc(Cl)c2)CCN1` (stereo not drawn) [Example 1-7], less than 100 nM. For `CC(=O)NCC1CN(S(=O)(=O)c2cc(C#N)ccc2Oc2cc(Cl)cc(Cl)c2)CCN1` (stereo not drawn) [Example 1-8], the concentration for half-maximal inhibition (IC50) is less than 100 nM.

As for `CS(=O)(=O)NCC1CNCCN1S(=O)(=O)c1cc(C#N)ccc1Oc1cc(Cl)cc(Cl)c1` (stereo not drawn) [Example 1-9], the IC50 was less than 100 nM. Next, `CC(=O)NCC1CNCCN1S(=O)(=O)c1cc(C#N)ccc1Oc1cc(Cl)cc(Cl)c1` (stereo not drawn) [Example 1-10]: less than 100 nM; `N#Cc1ccc(Oc2cc(Cl)cc(Cl)c2)c(S(=O)(=O)N2CCC(N3C[C@H](O)[C@@H](O)C3)CC2)c1` [Example 1-11]: less than 100 nM; `COC(=O)C1CN(S(=O)(=O)c2cc(C#N)ccc2Oc2cc(Cl)cc(Cl)c2)CCCN1` (stereo not drawn) [Example 1-12]: 100 to 500 nM. In the case of `COC(=O)[C@@H]1C[C@H](N2CCCC2)CN1S(=O)(=O)c1cc(C#N)ccc1Oc1cc(Cl)cc(Cl)c1` [Example 1-13], the 50% inhibitory concentration (IC50) is less than 100 nM. Next, `N#Cc1ccc(Oc2cc(Cl)cc(Cl)c2)c(S(=O)(=O)N2CC[C@H](NCCO)C2)c1` [Example 1-16]: less than 100 nM. Next, `COC(=O)C1CNCCCN1S(=O)(=O)c1cc(C#N)ccc1Oc1cc(Cl)cc(Cl)c1` (stereo not drawn) [Example 1-22]: less than 100 nM; `N#Cc1ccc(Oc2cc(Cl)cc(Cl)c2)c(S(=O)(=O)N2CCNC[C@@H]2Cc2c[nH]c3ccccc23)c1` [Example 1-26]: less than 100 nM; `N#Cc1ccc(Oc2cc(Cl)cc(Cl)c2)c(S(=O)(=O)N2CCNCC2CN2C(=O)CCC2=O)c1` (stereo not drawn) [Example 1-27]: less than 100 nM. As to `CS(=O)(=O)NCC1CN(S(=O)(=O)c2cc(C#N)ccc2Oc2cc(Cl)cc(Cl)c2)CCCN1` (stereo not drawn) [Example 1-28], the IC50 was less than 100 nM.

In the case of `CS(=O)(=O)NCC1CNCCCN1S(=O)(=O)c1cc(C#N)ccc1Oc1cc(Cl)cc(Cl)c1.Cl` (stereo not drawn) [Example 1-29], the IC50 is less than 100 nM.

As for `CC(=O)c1ccc(Oc2cc(Cl)cc(Cl)c2)c(S(=O)(=O)N2CCNCC2)c1` [Example 1-31], the half-inhibitory concentration (IC50) is less than 100 nM.

As to `N#Cc1ccc(Oc2cc(Cl)cc(Cl)c2)c(S(=O)(=O)N[C@@H]2CN3CCC2CC3)c1` [Example 1-32], the 50% inhibitory concentration (IC50) is less than 100 nM. Turning to `N#Cc1ccc(Oc2cc(Cl)cc(Cl)c2)c(S(=O)(=O)N2CCC(N3CCC[C@H]3C(=O)O)CC2)c1` [Example 1-33], the IC50 lay in the range of 100 to 500 nM. The result for `CC(C)(O)[C@@H]1CCCN1C1CCN(S(=O)(=O)c2cc(C#N)ccc2Oc2cc(Cl)cc(Cl)c2)CC1` [Example 1-34] reads less than 100 nM; that for `N#Cc1ccc(Oc2cc(Cl)cc(Cl)c2)c(S(=O)(=O)N2CCCCC2CN2CCC(O)C2)c1` (stereo not drawn) [Example 1-35], less than 100 nM.

As to `N#Cc1ccc(Oc2cc(Cl)cc(Cl)c2)c(S(=O)(=O)N2CCNC(Cn3ncnn3)C2)c1` (stereo not drawn) [Example 1-36], the IC50 is less than 100 nM.

With `Cl.N#Cc1ccc(Oc2cc(Cl)cc(Cl)c2)c(S(=O)(=O)N2CCNC(Cn3cncn3)C2)c1` (stereo not drawn) [Example 1-37], the IC50 is less than 100 nM.

For `CCN1CCCN(S(=O)(=O)c2cc(C#N)ccc2Oc2cc(Cl)cc(Cl)c2)C(C(=O)OC)C1` (stereo not drawn) [Example 1-39], the IC50 is less than 100 nM. The result for `N#Cc1ccc(Oc2cc(Cl)cc(Cl)c2)c(S(=O)(=O)N(CCN2CCCC2)C2CCCC2)c1` [Example 1-42] reads less than 100 nM; that for `N#Cc1ccc(Oc2cc(Cl)cc(Cl)c2)c(S(=O)(=O)N2CCNC(CN3C(=O)CCC3=O)C2)c1` (stereo not drawn) [Example 1-43], less than 100 nM. Next, `N#Cc1ccc(Oc2cc(Cl)cc(Cl)c2)c(S(=O)(=O)N2CCC(N3CCCC3)C(CN3C(=O)CCC3=O)C2)c1` (stereo not drawn) [Example 1-44]: less than 100 nM; `N#Cc1ccc(Oc2cc(Cl)cc(Cl)c2)c(S(=O)(=O)N2CCC(N3CCC[C@H]3CO)CC2)c1` [Example 1-45]: less than 100 nM. Next, `N#Cc1ccc(Oc2cc(Cl)cc(Cl)c2)c(S(=O)(=O)N2CCC[C@H]2CN2CCC[C@H]2CO)c1` [Example 1-46]: less than 100 nM. For the compound `N#Cc1ccc(Oc2cc(Cl)cc(Cl)c2)c(S(=O)(=O)C2CCNCC2)c1` [Example 2-1, 4-(3,5-Dichloro-phenoxy)-3-(piperidine-4-sulfonyl)-benzonitrile], the IC50 was more than 500 nM.
